Measurements reported in US11306091B2, “Process for producing fluorinated compounds using alcohol solvent having unsaturated hydrocarbon” (FUTURECHEM CO., LTD, priority 2019, dated 2022).

Experiment: Comparison of solubility of precursor compounds according to the kind of reaction solvents (observation with the naked eye)
Type: physicochemical
Settings: for Solubility in 2-methyl-3-butene-2-ol (the present invention), 60° C. / Solubility in 2-methyl-3-butene-2-ol (the present invention), room temp: 1.0 ml 2-methyl-3-butene-2-ol; for Solubility in 2-methyl-3-butene-2-ol (the present invention), 60° C. / Solubility in 2-methyl-3-butyne-2-ol (the present invention), 60° C. / Solubility in t-amyl alcohol (KR 10-0789847), 60° C.: shaking 1 minute at 60° C.; for Solubility in 2-methyl-3-butene-2-ol (the present invention), 60° C. / Solubility in 2-methyl-3-butene-2-ol (the present invention), room temp / Solubility in 2-methyl-3-butyne-2-ol (the present invention), 60° C. / Solubility in 2-methyl-3-butyne-2-ol (the present invention), room temp / Solubility in t-amyl alcohol (KR 10-0789847), 60° C. / Solubility in t-amyl alcohol (KR 10-0789847), room temp: naked eye; for Solubility in 2-methyl-3-butene-2-ol (the present invention), room temp / Solubility in 2-methyl-3-butyne-2-ol (the present invention), room temp / Solubility in t-amyl alcohol (KR 10-0789847), room temp: shaking 1 minute at room temperature; for Solubility in 2-methyl-3-butyne-2-ol (the present invention), 60° C. / Solubility in 2-methyl-3-butyne-2-ol (the present invention), room temp: 1.0 ml 2-methyl-3-butyne-2-ol; for Solubility in t-amyl alcohol (KR 10-0789847), 60° C. / Solubility in t-amyl alcohol (KR 10-0789847), room temp: 1.0 ml t-amyl alcohol; for State of solution dissolved at 60° C. after cooling to room temperature, t-amyl alcohol: cooled to room temperature after the lapse of time; for State of solution dissolved at 60° C. after cooling to room temperature, 2-methyl-3-butene-2-ol / 2-methyl-3-butyne-2-ol: solvents of the present invention, dissolved by heating to 60° C., cooled to room temperature
Description: Experiments for comparing the solubility in the 2-methyl-3-butene-2-ol solvent and 2-methyl-3-butyne-2-ol solvent according to the present invention, and the t-amyl alcohol solvent of the prior art (KE 10-0789847) were performed. Each of the precursors of FP-CIT, FDG, FLT, FMISO and FC119S in solid states was put in a vial, and 1.0 ml of each solvent was added thereto, followed by shaking at room temperature and 60° C. for 1 minutes, respectively, for dissolution.

SMILES | Solubility in 2-methyl-3-butene-2-ol (the present invention), 60° C. | Solubility in 2-methyl-3-butene-2-ol (the present invention), room temp | Solubility in 2-methyl-3-butyne-2-ol (the present invention), 60° C. | Solubility in 2-methyl-3-butyne-2-ol (the present invention), room temp | Solubility in t-amyl alcohol (KR 10-0789847), 60° C. | Solubility in t-amyl alcohol (KR 10-0789847), room temp | State of solution dissolved at 60° C. after cooling to room temperature, t-amyl alcohol | State of solution dissolved at 60° C. after cooling to room temperature, 2-methyl-3-butene-2-ol / 2-methyl-3-butyne-2-ol
CCC(Oc1ccc2ccccc2c1)OS(C)(=O)=O (centres unmarked) [1-(naphthalene-2-yloxy)propyl methanesulfonate] | Dissolved | Dissolved |  |  |  |  |  | 
CS(=O)(=O)OCCCOc1ccc2ccccc2c1 [3-(naphthalene-2-yloxy)propyl methanesulfonate] | Dissolved | Dissolved |  |  |  |  |  | 
CN(C(=O)OC(C)(C)C)c1ccc(-c2nc3ccc(OC[C@@H](COS(=O)(=O)c4ccc([N+](=O)[O-])cc4)OC4CCCCO4)cc3s2)cn1 (stereo partly drawn) [FC119S, (2S)-3-((2-(6-((tert-butoxycarbonyl) (methyl)amino)pyridin-3-yl)benzo[d]thiazol-6-yl)oxy)-2-((tetrahydro-2H-pyran-2-yl)oxy)propyl 4-nitrobenzenesulfonate] | Dissolved | Dissolved | Dissolved | Dissolved | Insoluble | Insoluble |  | 
CC(=O)OC[C@H]1O[C@@H](OC(C)=O)[C@@H](OS(=O)(=O)C(F)(F)F)[C@@H](OC(C)=O)[C@@H]1OC(C)=O [FDG, 1,3,4,6-tetra-O-acetyl-2-O-trifluoro-methanesulfonyl-beta-D-mannopyranose] | Dissolved | Dissolved | Dissolved | Dissolved | Dissolved | Insoluble | precipitated again as solids | 
Cc1cn([C@H]2C[C@H](OS(=O)(=O)c3ccc([N+](=O)[O-])cc3)[C@@H](COC(c3ccccc3)(c3ccccc3)c3ccccc3)O2)c(=O)n(C(=O)OC(C)(C)C)c1=O [FLT, 3-N-Boc-5′-O-trityl-3′-O-nosyl-thymidine] | Dissolved | Dissolved | Dissolved | Insoluble | Insoluble | Insoluble |  | not precipitated as solids
O=[N+]([O-])c1nccn1CC(O)CF (centres unmarked) [FMISO] | Dissolved | Insoluble | Dissolved | Dissolved | Dissolved | Insoluble | precipitated again as solids | not precipitated as solids
